Source: the NIST ThermoML archive (doi:10.1021/je060271a)

Details: 323.15 K, Liquid, Vibrating tube method

CCCCC(=O)OCC(COC(=O)CCCC)(COC(=O)CCCC)COC(=O)CCCC [pentaerythritol tetrapentanoate]
Details | mass density [kg/m3]
5507 kPa | 998.5
5515.1 kPa | 998.5
5521.3 kPa | 998.4
5527 kPa | 998.5
5546.7 kPa | 998.6
5564 kPa | 998.6
5581.9 kPa | 998.5
5599.5 kPa | 998.6
5620.8 kPa | 998.5
5638.1 kPa | 998.7
5660 kPa | 998.6
5678.2 kPa | 998.6
5695.6 kPa | 998.6
5714.3 kPa | 998.7
5736.6 kPa | 998.6
5755.1 kPa | 998.7
5774.3 kPa | 998.6
5797.1 kPa | 998.8
5816.3 kPa | 998.9
5836 kPa | 998.8
5854.9 kPa | 998.8
5878.6 kPa | 998.8
5898.5 kPa | 998.8
5917.1 kPa | 998.8
5937.2 kPa | 998.9
5961 kPa | 998.8
5982 kPa | 998.9
6002.4 kPa | 998.9
6023.3 kPa | 998.8
6048 kPa | 998.8
6068.6 kPa | 999
6091.7 kPa | 998.8
6114.3 kPa | 999
6135.5 kPa | 998.8
6162.7 kPa | 998.9
6183.1 kPa | 998.9
6205.3 kPa | 999
6226.8 kPa | 999.1
6253.6 kPa | 999.1
6278.3 kPa | 999
6299 kPa | 999
6322 kPa | 999.1
6349.8 kPa | 999.1
6371.6 kPa | 999.1
6395.8 kPa | 999.1
6420.4 kPa | 999
6446 kPa | 999.2
6472.8 kPa | 999.2
6495.8 kPa | 999.3
6521.7 kPa | 999.2
6549.3 kPa | 999.2
6572.1 kPa | 999.2
6596.7 kPa | 999.3
6622.6 kPa | 999.3
6652.8 kPa | 999.2
6676.5 kPa | 999.3
6703.4 kPa | 999.2
6735.7 kPa | 999.4
6761.8 kPa | 999.4
6788.6 kPa | 999.5
6816.1 kPa | 999.4
6841.8 kPa | 999.4
6873.6 kPa | 999.5
6900.5 kPa | 999.4
6928.9 kPa | 999.6
6961.3 kPa | 999.6
6989.5 kPa | 999.5
7017 kPa | 999.6
7044.4 kPa | 999.4
7079.5 kPa | 999.6
7110.4 kPa | 999.7
7137.5 kPa | 999.7
7169.3 kPa | 999.6
7204.5 kPa | 999.8
7233.8 kPa | 999.7
7265.1 kPa | 999.7
7295.5 kPa | 999.8
7332.3 kPa | 999.8
7362 kPa | 999.7
7393.2 kPa | 999.8
7425.1 kPa | 999.9
7462.4 kPa | 999.8
7497 kPa | 1000
7529.6 kPa | 999.9
7562.2 kPa | 999.9
7602.1 kPa | 1000
7634.4 kPa | 999.9
7668.9 kPa | 1000
7702.7 kPa | 1000
7742.2 kPa | 1000
7778.3 kPa | 1000.1
7818.5 kPa | 1000.1
7854.9 kPa | 1000.1
7890.7 kPa | 1000.1
8008.7 kPa | 1000.2
8045.6 kPa | 1000.3
8085.8 kPa | 1000.3
8132.2 kPa | 1000.2
8166 kPa | 1000.4
8197.3 kPa | 1000.4
8234.5 kPa | 1000.4
8265.2 kPa | 1000.4
8297.6 kPa | 1000.5
8334.6 kPa | 1000.5
8366.3 kPa | 1000.6
8398.2 kPa | 1000.5
8437.2 kPa | 1000.5
8471.2 kPa | 1000.5
8502.6 kPa | 1000.5
8536.2 kPa | 1000.6
8575.9 kPa | 1000.5
8609.5 kPa | 1000.6
8644.9 kPa | 1000.7
8686.6 kPa | 1000.7
8721.6 kPa | 1000.7
8763.3 kPa | 1000.7
8798.5 kPa | 1000.8
8835.2 kPa | 1000.8
8871.2 kPa | 1000.7
8918.5 kPa | 1000.9
8948.2 kPa | 1000.9
8992.3 kPa | 1000.9
9029 kPa | 1000.9
9074.5 kPa | 1000.9
9112.8 kPa | 1001
9150.4 kPa | 1001.1
9188.8 kPa | 1001.1
9235.3 kPa | 1001
9275.3 kPa | 1001.2
9315.5 kPa | 1001.1
9364.1 kPa | 1001.1
9405.6 kPa | 1001.2
9494 kPa | 1001.2
9537.2 kPa | 1001.2
9589.3 kPa | 1001.2
9624.3 kPa | 1001.3
9656.6 kPa | 1001.3
9695.6 kPa | 1001.3
9727.6 kPa | 1001.5
9873 kPa | 1001.5
9976.5 kPa | 1001.6
10018 kPa | 1001.6
10129 kPa | 1001.8
10165 kPa | 1001.7
10208 kPa | 1001.8
10280 kPa | 1001.7
10325 kPa | 1001.8
10362 kPa | 1001.9
10400 kPa | 1001.9
10447 kPa | 1001.9
10486 kPa | 1001.9
10527 kPa | 1002
10577 kPa | 1001.8
10620 kPa | 1002.1
10661 kPa | 1002
10691 kPa | 1002.1
10711 kPa | 1002.1
10731 kPa | 1002.2
10755 kPa | 1002.1
10775 kPa | 1002
